Data on six compounds can be found in ChEMBL document CHEMBL1201862, “PubChem BioAssay data set” (2004).

Calls of active or inactive are those of the source.

In assay [1] the test system is HeLa. Put plainly: HeLa cell cytotoxicity, dose response, cytotoxicity control, ATP luminescence, cherry-pick samples (AID 687004). It is filed as functional, cell-based. The following applies: Homo sapiens.
Assay [2] is described as follows: HepG2 cell cytotoxicity, dose response, cytotoxicity control for Shn3 inhibitor project, CellTiter-Glo, cherry-picked (AID 624134). It is filed as functional, cell-based.
The target of assay [3] is T1, Streptokinase A (Streptococcus pyogenes serotype M1, UniProt P10520).
T1 sequence (P10520 whole entry): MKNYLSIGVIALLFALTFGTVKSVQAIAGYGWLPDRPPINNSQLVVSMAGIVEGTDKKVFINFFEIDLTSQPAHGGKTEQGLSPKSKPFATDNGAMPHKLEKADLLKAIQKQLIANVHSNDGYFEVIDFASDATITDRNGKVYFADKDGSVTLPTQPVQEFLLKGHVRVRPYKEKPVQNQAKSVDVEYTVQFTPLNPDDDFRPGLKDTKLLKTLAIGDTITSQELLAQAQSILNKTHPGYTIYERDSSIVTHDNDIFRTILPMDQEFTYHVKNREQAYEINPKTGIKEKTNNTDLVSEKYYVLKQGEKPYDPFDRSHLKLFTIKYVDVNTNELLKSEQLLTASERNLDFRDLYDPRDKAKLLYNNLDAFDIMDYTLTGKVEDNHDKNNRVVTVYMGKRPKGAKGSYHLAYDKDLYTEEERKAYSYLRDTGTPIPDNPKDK
The assay can be described thus: S. pyogenes streptokinase expression inhibitors, potency, dose response, plasminogen activation absorbance, OD405 (AID 1914).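 Also: secreted streptokinase activity via plasminogen activation per viability signal from cell pellet.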 It counts as functional, Streptococcus pyogenes M1 GAS.

The target of assay [4] is Paired box protein Pax-8 (Homo sapiens, UniProt Q06710). Put plainly: inhibitors of PAX8-driven TPO luciferase reporter, dose response, RMG-I cells, cherry-pick (AID 687027).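 Also: luciferase reporter driven by Pax8 target thyroperoxidase promoter measured by SteadyGlo luminescence.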 It counts as functional, cell-based.
Assay [5] deals with T2, Fatty acid synthase (Homo sapiens, UniProt P49327). Put plainly: FAS thioesterase domain inhibitors, dose response, biochemical, endpoint fluorescence intensity, uHTS hits (AID 624327).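 Also: fluorescence from hydrolysis of an O-methyl fluorescein acyl ester substrate by the enzyme.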 It is filed as functional.
A short description of assay [6]: control 3'UTR Renilla luciferase suppression, dose response, counter-screen for Shn3 inhibitor project, cell-based, Clone20-Shn3RL, cherry-picked (AID 624133). It is filed as functional.
Assay [7] deals with T2, Fatty acid synthase. Put plainly: FAS thioesterase domain inhibitors, dose response, biochemical, kinetic fluorescence intensity (AID 624326).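 Also: rate of fluorescence rise from hydrolysis of a fluorogenic O-methyl fluorescein ester substrate.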 It counts as functional.
Assay [8] is described as follows: Shn3 3'UTR reporter inhibitors, dose response, cell-based, Clone20 osteoblasts, firefly luciferase, cherry-picked (AID 624132).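 Also: firefly luciferase luminescence from reporter carrying the Shn3 3'UTR in osteoblasts.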 It counts as functional.
The test system of assay [9] is Streptococcus. Put plainly: Group A Streptococcus viability loss, dose response, counter-screen for streptokinase expression inhibitor project, luminescence, BacTiterGlo (AID 1915).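 Also: potency for reduction of bacterial viability or growth.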 It is filed as functional, organism-based.
A short description of assay [10]: non-specific cell cytotoxicity, dose response, cytotoxicity control for PAX8 inhibitor project, plate reader, dry powder samples (AID 743021). It counts as functional, cell-based.
Assay [11] concerns Streptococcus sp. 'group A'. The assay can be described thus: growth inhibition of control SK(-) GAS strain, dose response, counter-screen for streptokinase expression inhibitor project, luminescence, kanamycin, BacTiterGlo, confirmation (AID 1900). It is filed as functional, organism-based.
For assay [12], the system named is BHK-21. Put plainly: BHK-21 cell toxicity, dose response, cytotoxicity control, plate reader, cherry-pick samples (AID 687030). It counts as functional, cell-based. The following applies: Mesocricetus auratus.
Assay [13] has as its target T3, Beta-lactamase (Pseudomonas aeruginosa, UniProt Q79MP6). The assay can be described thus: IMP-1 metallo-beta-lactamase inhibitors, dose response, selectivity assay for VIM-2 inhibitor project, biochemical, epi-absorbance (AID 1920).
For assay [14], the target named is T3, Beta-lactamase. Put plainly: […] counterscreen for selective VIM-2 inhibitors: dose response biochemical high throughput screening assay to identify inhibitors of IMP-1 metallo-beta-lactamase.
Assay [15] has as its target Beta-lactamase (Salmonella choleraesuis (strain SC-B67), UniProt Q5J463). The assay can be described thus: Epi-absorbance-based counterscreen for selective VIM-2 inhibitors: dose response biochemical high throughput screening assay to identify inhibitors of TEM-1 serine-beta-lactamase.
Assay [16] has as its target Albumin (Bos taurus, UniProt P02769). Put plainly: Counterscreen for inhibitors of T-cell receptor (TCR)-CD3 interaction: Fluorescence-based biochemical high throughput dose response assay to identify inhibitors of T-cell receptor (TCR)-CD3 interaction using a TAMRA-labeled BSA probe. It is filed as functional.
Assay [17] concerns the target Tyrosine-protein phosphatase non-receptor type 11 (Homo sapiens, UniProt Q06124). The assay can be described thus: SHP2 phosphatase inhibition, dose response, selectivity assay for STEP inhibitor project, biochemical (AID 602367). The following applies: read-out: IC50_Mean. It is filed as functional.
Assay [18] has as its target T4, Carboxy-terminal domain RNA polymerase II polypeptide A small phosphatase 1 (Homo sapiens, UniProt Q9GZU7).
T4 sequence (Q9GZU7 whole entry): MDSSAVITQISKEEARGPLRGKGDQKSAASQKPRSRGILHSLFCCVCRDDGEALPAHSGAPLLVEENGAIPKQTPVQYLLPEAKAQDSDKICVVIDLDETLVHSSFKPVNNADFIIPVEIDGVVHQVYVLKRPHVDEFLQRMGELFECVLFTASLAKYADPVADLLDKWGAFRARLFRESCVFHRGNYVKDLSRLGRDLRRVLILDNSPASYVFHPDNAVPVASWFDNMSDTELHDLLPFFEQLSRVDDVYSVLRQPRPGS
Put plainly: inhibitors of CTDSP1, concentration-response testing, biochemical assay, absorbance-based, actives from ultra-high-throughput screening (AID 540297). It counts as functional.

The target of assay [19] is Eukaryotic translation initiation factor 4E (Mus musculus, UniProt P63073). Put plainly: eIF4E–eIF4G protein interaction inhibitors, dose response, biochemical, TR-FRET (AID 855).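 Also: potency for disrupting eIF4E binding to eIF4GI seen as loss of FRET.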 It counts as functional.
Assay [20] addresses Tyrosine-protein phosphatase non-receptor type 5 (Homo sapiens, UniProt P54829). The assay can be described thus: STEP phosphatase inhibitors, confirmation, biochemical, fluorescence intensity, uHTS hits (AID 602372). It counts as functional. The following applies: read-out: IC50_Mean.
The target of assay [21] is T5, Tyrosine-protein phosphatase non-receptor type 22 (Homo sapiens, UniProt Q9Y2R2).
T5 sequence (Q9Y2R2 whole entry): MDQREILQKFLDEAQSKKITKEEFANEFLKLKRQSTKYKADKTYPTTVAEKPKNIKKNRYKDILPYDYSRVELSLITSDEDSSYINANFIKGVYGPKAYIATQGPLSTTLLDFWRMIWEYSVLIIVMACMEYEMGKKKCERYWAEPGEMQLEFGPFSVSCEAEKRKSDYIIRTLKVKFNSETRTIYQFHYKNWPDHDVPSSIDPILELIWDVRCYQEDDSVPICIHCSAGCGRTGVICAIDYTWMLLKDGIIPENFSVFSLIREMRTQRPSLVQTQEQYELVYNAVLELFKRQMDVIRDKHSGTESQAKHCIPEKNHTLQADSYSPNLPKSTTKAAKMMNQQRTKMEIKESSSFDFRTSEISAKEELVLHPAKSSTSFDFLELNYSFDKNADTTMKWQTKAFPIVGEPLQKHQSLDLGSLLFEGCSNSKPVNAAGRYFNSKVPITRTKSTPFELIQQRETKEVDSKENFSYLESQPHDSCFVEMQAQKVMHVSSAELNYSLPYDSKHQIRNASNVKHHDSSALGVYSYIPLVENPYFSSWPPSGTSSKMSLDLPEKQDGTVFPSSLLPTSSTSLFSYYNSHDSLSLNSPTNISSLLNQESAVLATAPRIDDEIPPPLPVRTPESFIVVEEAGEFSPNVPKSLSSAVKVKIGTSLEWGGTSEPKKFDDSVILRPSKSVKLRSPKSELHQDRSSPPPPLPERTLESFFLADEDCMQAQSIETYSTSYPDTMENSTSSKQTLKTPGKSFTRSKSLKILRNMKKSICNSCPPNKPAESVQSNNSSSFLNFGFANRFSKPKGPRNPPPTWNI
The assay can be described thus: PTPN22 phosphatase inhibition, dose response, selectivity assay for STEP inhibitor project, biochemical (AID 624241). It is filed as functional.

In assay [22] the target is Dual specificity protein phosphatase 3 (Homo sapiens, UniProt P51452). The assay can be described thus: VHR phosphatase inhibition, dose response, selectivity assay for STEP inhibitor project, biochemical (AID 602374). It is filed as functional. The following applies: read-out: IC50_Mean.
Dual specificity protein phosphatase 3, sequence (P51452 whole entry): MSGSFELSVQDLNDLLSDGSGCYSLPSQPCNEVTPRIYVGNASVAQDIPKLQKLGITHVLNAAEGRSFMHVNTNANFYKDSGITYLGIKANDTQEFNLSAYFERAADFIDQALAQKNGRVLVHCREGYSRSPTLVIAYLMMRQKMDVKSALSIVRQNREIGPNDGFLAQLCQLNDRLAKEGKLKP

T3 sequence (Q79MP6 whole entry): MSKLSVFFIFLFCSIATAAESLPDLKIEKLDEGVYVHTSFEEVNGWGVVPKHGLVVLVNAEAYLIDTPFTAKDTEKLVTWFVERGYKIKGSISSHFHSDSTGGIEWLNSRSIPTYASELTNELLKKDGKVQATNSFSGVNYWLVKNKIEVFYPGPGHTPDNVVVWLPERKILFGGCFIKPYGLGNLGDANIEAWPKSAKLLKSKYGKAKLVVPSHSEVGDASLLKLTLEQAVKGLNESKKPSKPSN
T2 sequence (P49327 whole entry, the tested form may be a part): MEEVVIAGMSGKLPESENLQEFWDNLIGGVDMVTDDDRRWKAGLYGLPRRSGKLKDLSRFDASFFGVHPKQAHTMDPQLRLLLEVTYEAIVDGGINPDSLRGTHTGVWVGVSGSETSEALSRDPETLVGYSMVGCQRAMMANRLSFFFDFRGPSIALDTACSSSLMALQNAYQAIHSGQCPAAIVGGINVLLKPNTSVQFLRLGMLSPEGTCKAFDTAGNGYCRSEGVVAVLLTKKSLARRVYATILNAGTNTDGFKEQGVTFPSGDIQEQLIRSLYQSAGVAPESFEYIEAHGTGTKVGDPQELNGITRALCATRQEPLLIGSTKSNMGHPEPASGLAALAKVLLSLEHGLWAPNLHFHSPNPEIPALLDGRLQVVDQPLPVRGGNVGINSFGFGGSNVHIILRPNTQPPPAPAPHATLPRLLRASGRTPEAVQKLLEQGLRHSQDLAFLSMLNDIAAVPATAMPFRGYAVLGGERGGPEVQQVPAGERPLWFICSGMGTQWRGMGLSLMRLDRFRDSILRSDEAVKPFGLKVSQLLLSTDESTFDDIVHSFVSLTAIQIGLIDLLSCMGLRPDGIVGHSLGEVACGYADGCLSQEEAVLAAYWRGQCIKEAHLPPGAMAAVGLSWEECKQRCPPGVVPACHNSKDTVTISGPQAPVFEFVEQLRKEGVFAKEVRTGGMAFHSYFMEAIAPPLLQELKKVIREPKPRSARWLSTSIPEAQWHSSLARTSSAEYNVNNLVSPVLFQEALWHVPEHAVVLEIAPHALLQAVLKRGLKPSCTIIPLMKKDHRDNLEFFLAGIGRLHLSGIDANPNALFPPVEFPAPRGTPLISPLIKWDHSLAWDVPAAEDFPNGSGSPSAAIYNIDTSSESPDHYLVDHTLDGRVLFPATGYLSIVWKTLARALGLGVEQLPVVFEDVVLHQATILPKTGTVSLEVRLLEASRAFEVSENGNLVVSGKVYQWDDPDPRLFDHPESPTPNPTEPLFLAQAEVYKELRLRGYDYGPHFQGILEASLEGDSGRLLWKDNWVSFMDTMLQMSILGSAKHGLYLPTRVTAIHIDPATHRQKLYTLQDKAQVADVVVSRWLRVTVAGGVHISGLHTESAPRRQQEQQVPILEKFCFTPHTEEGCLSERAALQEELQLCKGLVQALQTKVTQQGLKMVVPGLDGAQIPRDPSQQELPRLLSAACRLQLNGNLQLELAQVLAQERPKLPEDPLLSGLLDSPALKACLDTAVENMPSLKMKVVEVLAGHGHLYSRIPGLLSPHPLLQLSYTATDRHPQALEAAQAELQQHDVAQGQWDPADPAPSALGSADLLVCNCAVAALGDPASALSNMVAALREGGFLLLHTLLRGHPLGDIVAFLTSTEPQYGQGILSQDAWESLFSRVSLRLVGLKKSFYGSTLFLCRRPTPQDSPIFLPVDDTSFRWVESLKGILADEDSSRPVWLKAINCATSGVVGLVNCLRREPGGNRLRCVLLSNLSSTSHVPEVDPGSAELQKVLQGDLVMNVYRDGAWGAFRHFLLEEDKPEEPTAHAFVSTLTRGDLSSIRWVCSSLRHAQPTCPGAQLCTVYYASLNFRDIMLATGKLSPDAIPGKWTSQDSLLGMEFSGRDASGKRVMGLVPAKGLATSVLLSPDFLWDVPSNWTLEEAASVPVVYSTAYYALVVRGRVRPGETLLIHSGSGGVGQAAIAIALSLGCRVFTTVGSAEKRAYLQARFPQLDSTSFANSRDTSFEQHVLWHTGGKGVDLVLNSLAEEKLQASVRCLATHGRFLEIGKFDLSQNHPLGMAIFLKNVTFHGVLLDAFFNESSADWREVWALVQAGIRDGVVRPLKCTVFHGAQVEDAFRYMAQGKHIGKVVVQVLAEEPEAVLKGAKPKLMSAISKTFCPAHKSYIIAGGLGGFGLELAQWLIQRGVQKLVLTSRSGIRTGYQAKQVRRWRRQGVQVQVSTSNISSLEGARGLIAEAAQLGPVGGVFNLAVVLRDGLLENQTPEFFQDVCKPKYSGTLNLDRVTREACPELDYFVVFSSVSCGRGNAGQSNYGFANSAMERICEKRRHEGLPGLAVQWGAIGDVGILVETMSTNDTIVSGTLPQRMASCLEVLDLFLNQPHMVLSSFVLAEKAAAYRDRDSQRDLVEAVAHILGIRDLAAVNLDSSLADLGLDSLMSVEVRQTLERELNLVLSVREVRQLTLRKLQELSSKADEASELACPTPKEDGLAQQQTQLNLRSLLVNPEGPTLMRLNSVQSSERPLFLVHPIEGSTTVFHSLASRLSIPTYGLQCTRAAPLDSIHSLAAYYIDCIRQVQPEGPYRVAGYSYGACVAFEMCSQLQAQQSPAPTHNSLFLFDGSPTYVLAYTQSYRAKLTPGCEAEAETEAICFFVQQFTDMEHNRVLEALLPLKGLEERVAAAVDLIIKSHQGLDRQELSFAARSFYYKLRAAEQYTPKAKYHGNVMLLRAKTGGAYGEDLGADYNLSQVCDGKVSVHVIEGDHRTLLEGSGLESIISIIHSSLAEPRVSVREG
Paired box protein Pax-8, sequence (Q06710 whole entry, the tested form may be a part): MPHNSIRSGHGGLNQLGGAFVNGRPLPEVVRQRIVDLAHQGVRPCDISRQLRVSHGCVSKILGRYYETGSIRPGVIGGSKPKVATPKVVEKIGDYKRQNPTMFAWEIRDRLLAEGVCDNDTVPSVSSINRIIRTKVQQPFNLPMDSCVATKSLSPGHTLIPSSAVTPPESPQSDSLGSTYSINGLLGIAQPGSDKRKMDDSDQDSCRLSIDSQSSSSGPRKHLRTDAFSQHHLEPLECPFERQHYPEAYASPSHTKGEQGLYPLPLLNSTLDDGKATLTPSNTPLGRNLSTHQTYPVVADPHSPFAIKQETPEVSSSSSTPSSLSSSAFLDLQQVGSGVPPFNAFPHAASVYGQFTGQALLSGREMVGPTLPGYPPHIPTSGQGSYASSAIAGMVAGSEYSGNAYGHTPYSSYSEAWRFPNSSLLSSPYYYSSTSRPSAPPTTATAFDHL
Tyrosine-protein phosphatase non-receptor type 5, sequence (P54829 whole entry): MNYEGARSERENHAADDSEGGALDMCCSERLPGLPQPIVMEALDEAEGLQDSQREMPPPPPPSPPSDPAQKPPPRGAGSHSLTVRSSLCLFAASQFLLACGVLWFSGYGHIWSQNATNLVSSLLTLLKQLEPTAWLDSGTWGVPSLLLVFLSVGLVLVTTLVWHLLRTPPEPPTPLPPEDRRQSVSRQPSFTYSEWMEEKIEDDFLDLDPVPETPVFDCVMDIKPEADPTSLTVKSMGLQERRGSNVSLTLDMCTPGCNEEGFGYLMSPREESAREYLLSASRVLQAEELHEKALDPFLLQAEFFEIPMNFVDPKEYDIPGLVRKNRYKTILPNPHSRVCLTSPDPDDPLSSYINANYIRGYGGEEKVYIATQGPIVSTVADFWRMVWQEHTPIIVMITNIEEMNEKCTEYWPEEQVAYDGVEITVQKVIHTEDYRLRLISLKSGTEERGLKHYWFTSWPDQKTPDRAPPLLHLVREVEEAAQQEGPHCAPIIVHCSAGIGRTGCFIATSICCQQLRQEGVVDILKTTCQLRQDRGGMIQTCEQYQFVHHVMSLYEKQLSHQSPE
Eukaryotic translation initiation factor 4E, sequence (P63073 whole entry): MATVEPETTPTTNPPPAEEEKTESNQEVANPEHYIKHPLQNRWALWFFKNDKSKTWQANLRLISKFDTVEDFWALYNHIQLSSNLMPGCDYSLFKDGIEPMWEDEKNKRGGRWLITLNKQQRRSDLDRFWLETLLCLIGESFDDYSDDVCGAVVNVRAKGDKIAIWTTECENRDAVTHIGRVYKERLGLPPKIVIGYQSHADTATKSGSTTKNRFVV
Beta-lactamase (Salmonella choleraesuis (strain SC-B67), UniProt Q5J463), sequence (Q5J463 whole entry): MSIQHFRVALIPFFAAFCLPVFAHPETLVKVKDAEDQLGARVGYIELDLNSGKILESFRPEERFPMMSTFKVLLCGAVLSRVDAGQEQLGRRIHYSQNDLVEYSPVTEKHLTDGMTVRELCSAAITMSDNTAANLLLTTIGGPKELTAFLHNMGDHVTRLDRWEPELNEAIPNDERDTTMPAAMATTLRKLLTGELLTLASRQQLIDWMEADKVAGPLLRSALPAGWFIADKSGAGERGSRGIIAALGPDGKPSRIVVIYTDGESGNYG
Tyrosine-protein phosphatase non-receptor type 11, sequence (Q06124 whole entry, the tested form may be a part): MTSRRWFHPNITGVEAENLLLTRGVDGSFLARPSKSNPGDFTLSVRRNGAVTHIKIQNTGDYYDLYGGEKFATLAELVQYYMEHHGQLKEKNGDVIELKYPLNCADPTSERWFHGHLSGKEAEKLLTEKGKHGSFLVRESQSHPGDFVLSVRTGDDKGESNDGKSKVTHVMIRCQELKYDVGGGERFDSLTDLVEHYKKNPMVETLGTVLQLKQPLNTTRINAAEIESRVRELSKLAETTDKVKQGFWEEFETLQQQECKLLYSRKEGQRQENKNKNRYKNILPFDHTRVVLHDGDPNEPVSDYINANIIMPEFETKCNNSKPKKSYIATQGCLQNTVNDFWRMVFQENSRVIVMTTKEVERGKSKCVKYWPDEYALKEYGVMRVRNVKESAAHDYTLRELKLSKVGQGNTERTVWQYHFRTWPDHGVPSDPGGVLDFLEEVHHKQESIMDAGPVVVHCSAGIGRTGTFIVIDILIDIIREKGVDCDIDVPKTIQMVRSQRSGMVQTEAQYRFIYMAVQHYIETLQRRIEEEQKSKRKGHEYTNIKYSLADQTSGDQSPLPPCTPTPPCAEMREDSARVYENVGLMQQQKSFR

Consider `Cc1cccc(N=C(S)NN(Cc2ccccc2)c2ccccc2)c1C`, for which, in assay [1], the AC50 is > 52 µM (inactive).
Regarding `CCOc1ccccc1NC(=O)c1nc(S(=O)(=O)Cc2ccccc2)ncc1Cl`, the AC50 in [2] was 16.9 µM (active); in assay [4] it was 7.1 µM (active); in assay [6] it was 6.36 µM (active); in assay [8] it was 0.376 µM (active); in [10], 21.7 µM (active). For the same compound, the EC50 in [3] was 1.98 µM (active); in assay [9], 13.7 µM (active); in assay [11], 12.5 µM (active). Further, the IC50 in assay [5] is 7.85 µM (active); in assay [7] it was 7.5 µM (active).
For the compound `CCN(CC)CC(=O)N1CCCC(N2CCN(c3cccc(C(F)(F)F)c3)CC2)C1` (configuration not stated), the AC50 in assay [12] is 33.4 µM (active).
Take `COc1ccc(-c2n[nH]c(=S)n2-c2ccc3c(c2)OCCO3)cc1OC`: the IC50 in [13], in assay [14] and in assay [15] was > 59.6 µM (inactive) throughout.
Turning to `CC(C)C(=O)Nc1ccc(C(=O)NNC(=S)NC(=O)c2ccccc2[N+](=O)[O-])cc1`, the IC50 in assay [16] was > 94.1 µM (inactive).
`O=C(O)c1ccc2c(c1)C(=O)N(c1cccc(-c3nc4ccccc4s3)c1)C2=O`: the IC50 is 6.24 µM (active) in assay [17]; 7.07 µM (active) in assay [18]; 50 µM (inactive) in assay [19]; 8.03 µM (active) in assay [20]; 35.6 µM (inactive) in assay [21]; 6.02 µM (active) in [22].
